Measured values from ChEMBL document CHEMBL1201862, “PubChem BioAssay data set” (2004).
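In this assay, cells in 96-well plates receive the compound at five concentrations for 48 hours. Endpoints are linearly interpolated between the surrounding concentrations. Abbreviation: GI50, concentration required for 50% inhibition of growth.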 The source made the active and inactive calls. No stated cut-off is given here; in the data, active = GI50 up to about 1.1 µM and inactive = higher.

Experiments:
Experiment in all cases: growth of human tumour cells (NCI), 48 h
[1] = test system: HOP-92
[2] = test system: MDA-MB-231
[3] = test system: HOP-62
[4] = test system: SF-295
[5] = test system: CAKI-1
[6] = test system: HCC 2998
[7] = test system: SK-MEL-28
[8] = test system: PC-3
[9] = test system: U-251
[10] = test system: RXF 393
[11] = test system: SK-MEL-5
[12] = test system: SN12C
[13] = test system: Malme-3M
[14] = test system: OVCAR-3
[15] = test system: Hs-578T
[16] = test system: A498
[17] = test system: SF-268
[18] = test system: LOX IMVI
[19] = test system: SW-620
[20] = test system: ACHN

Measured: GI50

OC[C@@H](O)[C@H](O)[C@@H](O)/C=N/Nc1ccc(Cl)nn1
inactive: [1] > 100 µM | [2] > 100 µM | [3] > 100 µM | [4] > 100 µM | [5] > 100 µM | [6] > 100 µM | [7] > 100 µM | [8] > 100 µM | [9] > 100 µM | [10] > 100 µM | [11] > 100 µM | [12] > 100 µM | [13] > 100 µM | [14] > 100 µM | [15] > 100 µM | [16] > 100 µM | [17] > 100 µM | [18] > 100 µM | [19] > 100 µM | [20] > 100 µM

CCOC(=O)c1nc2cc(Cl)ccc2[nH]c1=O
inactive: [1] > 100 µM | [2] > 100 µM | [3] > 100 µM | [4] > 100 µM | [5] > 100 µM | [6] > 100 µM | [7] > 100 µM | [8] > 100 µM | [9] > 100 µM | [10] > 100 µM | [11] > 100 µM | [12] > 100 µM | [13] > 100 µM | [14] > 100 µM | [15] > 100 µM | [16] > 100 µM | [17] > 100 µM | [18] > 100 µM | [19] > 100 µM | [20] > 100 µM

O=CC1OC(=O)c2cc(O)c(O)c(O)c2-c2c(cc(O)c(O)c2O)C(=O)OC1C1OC(=O)c2cc(O)c(O)c(O)c2-c2c(O)c(O)c3oc(=O)c4c(c(O)c(O)c5oc(=O)c2c3c54)-c2c(cc(O)c(O)c2O)C(=O)OCC1O (stereo not given)
inactive: [1] 16.6 µM | [2] 13.9 µM | [3] 44.3 µM | [4] 18.7 µM | [5] 12.1 µM | [6] 33.4 µM | [7] > 100 µM | [8] 38.2 µM | [9] 17.9 µM | [10] 57 µM | [11] 18.2 µM | [12] 16.6 µM | [13] 94.4 µM | [14] 39.7 µM | [15] 44.7 µM | [16] 5.94 µM | [17] 56.9 µM | [18] 11.2 µM | [19] 19.3 µM | [20] 35.2 µM

COc1ccccc1N1C(=O)/C(=C\c2cccc(Oc3ccccc3)c2)SC1c1ccccc1 (stereo not given)
inactive: [1] 21.1 µM | [2] > 100 µM | [3] 73.3 µM | [4] 18.7 µM | [5] > 100 µM | [6] 25.7 µM | [7] 46.9 µM | [8] 58.5 µM | [9] 38.4 µM | [10] 56.9 µM | [11] 14.4 µM | [12] 30.2 µM | [13] 37.6 µM | [14] 27.7 µM | [15] 39.4 µM | [16] > 100 µM | [17] 38 µM | [18] 21.6 µM | [19] 17.8 µM | [20] 35.5 µM

c1coc(-c2nccc3c2[nH]c2ccccc23)c1
inactive: [1] 35 µM | [2] > 100 µM | [3] > 100 µM | [4] > 100 µM | [5] > 100 µM | [6] > 100 µM | [7] > 100 µM | [8] > 100 µM | [9] > 100 µM | [10] > 100 µM | [11] > 100 µM | [12] > 100 µM | [13] > 100 µM | [14] > 100 µM | [15] > 100 µM | [16] > 100 µM | [17] > 100 µM | [18] > 100 µM | [19] > 100 µM | [20] > 100 µM
